Measurements from patent US20050058600A1, “3,3'-Diindolylmethane antiandrogenic compositions” (priority 2003, published 2005).

Key:
[1] = test system: dimethylbenzanthracene (DMBA)-induced mammary tumors; settings: rats; cited from earlier work
[2] = test system: BP-induced pulmonary adenomas; settings: mice; cited from earlier work
[3] = test system: breast cancer cells; settings: in culture; cited from earlier work
[4] = molecular target: T1, AR (Homo sapiens, UniProt P10275); test: pPSA-Luc / MMTV-Luc reporter assay in PC-3 cells with or without AR expression vector; format: cell-based; settings: PC-3 co-transfected with AR expression vector; pPSA-Luc, same with MMTV-Luc
T1 construct: expressed in transfected cells; host or cells: PC-3
T1 sequence (P10275 1-920): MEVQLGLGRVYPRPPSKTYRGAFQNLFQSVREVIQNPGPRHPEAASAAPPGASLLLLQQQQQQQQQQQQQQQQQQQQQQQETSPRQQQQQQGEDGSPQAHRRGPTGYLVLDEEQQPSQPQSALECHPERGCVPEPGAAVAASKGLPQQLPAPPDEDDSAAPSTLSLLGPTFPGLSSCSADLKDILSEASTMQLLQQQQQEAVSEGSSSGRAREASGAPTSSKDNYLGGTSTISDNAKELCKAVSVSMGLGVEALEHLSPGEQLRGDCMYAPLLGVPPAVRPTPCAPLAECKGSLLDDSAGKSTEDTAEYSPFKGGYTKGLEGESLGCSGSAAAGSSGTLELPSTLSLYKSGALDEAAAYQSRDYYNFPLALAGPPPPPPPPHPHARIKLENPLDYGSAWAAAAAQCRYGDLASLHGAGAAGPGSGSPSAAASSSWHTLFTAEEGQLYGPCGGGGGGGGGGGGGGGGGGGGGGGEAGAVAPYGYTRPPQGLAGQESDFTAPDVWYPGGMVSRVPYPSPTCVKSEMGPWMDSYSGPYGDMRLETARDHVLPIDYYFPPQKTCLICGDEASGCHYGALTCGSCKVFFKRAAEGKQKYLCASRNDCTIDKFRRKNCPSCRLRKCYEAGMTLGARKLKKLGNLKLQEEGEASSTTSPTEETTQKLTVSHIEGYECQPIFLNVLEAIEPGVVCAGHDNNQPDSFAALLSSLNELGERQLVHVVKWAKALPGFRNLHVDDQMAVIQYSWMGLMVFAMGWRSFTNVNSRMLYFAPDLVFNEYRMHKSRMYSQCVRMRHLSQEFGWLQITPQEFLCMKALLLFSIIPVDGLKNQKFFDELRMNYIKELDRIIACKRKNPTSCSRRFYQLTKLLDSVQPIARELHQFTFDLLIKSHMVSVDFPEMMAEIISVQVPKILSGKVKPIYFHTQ
Protocol: (§1) Plasmid Reporters and Expression Vectors. The ARE responsive luciferase reporter plasmid, pPSA-630 luciferase (pPSA-Luc) was prepared as previously described (29). pPSA-Luc contains the PSA promoter region (−630 to 12) with three AREs, all of which are critical to the activity of the pPSA-Luc promoter. The MMTV-Luc contains one consensus ARE and the expression vector, pCMV-hAR constitutively expresses a fully functional human androgen receptor. The pCMV-GFP-rAR was prepared as previously described (30).
(§2) Transient Transfections with Reporters and Luciferase Assay. LNCaP and PC-3 cells were transfected, with some modifications, as previously described (20). For AR transactivation, cells were transfected with 0.1 μg of MMTV-Luc or pPSA-Luc per plate. Co-transfection experiments with pCMV-hAR or pCMV-GFP-rAR, 0.1 μg per plate was also used. For experiments involving GFP fluorescence imaging, treatments were not added until 30 h after transfection.

[5] = test system: AR; test: as above; format: cell-based, human
Protocol: as §1, §2

[6] = test system: wild-type recombinant human AR; test: Competitive [3H]DHT binding assay, recombinant AR protein; settings: micromolar concentration range
[7] = test system: benzo(a)pyrene (BP)-induced tumors of the forestomach; settings: mice; cited from earlier work
[8] = test system: PSA protein; test: Western blot of intracellular and secreted PSA in LNCaP cells; format: cell-based, human; settings: DHT co-treatment
Protocol: Analysis of Intracellular and Secreted PSA. LNCaP cells growing on 100 mm plates were treated for 24 h. Cells were lysed as previously described (20) for intracellular PSA analysis. For secreted proteins, spent medium was collected and concentrated 18-fold using Millipore Centriprep YM-10 following manufacturer's protocol (Bedford, Mass.). Protease inhibitors were added and the proteins were immunoprecipitated with 3 μg/mL monoclonal free PSA antibody (Biodesign International) for 2 h and co-immunoprecipitated overnight at 4° C. with Protein A/G agarose (Santa Cruz Biotechnology, Santa Cruz, Calif.) on a rotator. The samples were then subjected to Western blot analysis as described previously (20) using a monoclonal PSA (sc-7316) primary antibody and a goat anti-mouse-IgG-AP secondary antibody.

inhibition of DHT-induced transactivation [4]: concentration-dependent inhibition
SMILES: c1ccc2c(Cc3c[nH]c4ccccc34)c[nH]c2c1 [DIM, 3,3′-diindolylmethane]
incidence of DMBA-induced mammary tumors [1]: reduced the incidence
incidence of BP-induced pulmonary adenomas [2]: reduced the incidence
programmed cell death in human breast tumor cells [3]: induced programmed cell death
proliferation of breast cancer cells [3]: inhibit proliferation
effect on pPSA-Luc reporter ([5]; PC-3 without co-transfection of an AR expression vector): has no effect
transactivation of reporter genes by compound alone ([5]; either cell line, with or without co-transfection of wild-type AR): did not induce transactivation
competition with labeled DHT for binding to the AR [6]: competes with labeled DHT for binding to the AR
incidence of BP-induced tumors of the forestomach [7]: reduced the incidence
levels of intracellular and secreted PSA protein [8]: reduced levels of intracellular and secreted PSA protein to background concentrations
